The values below come from US6737418B2, “Aryl substituted pyrazoles, imidazoles, oxazoles, thiazoles and pyrroles, and the use thereof” (Euro-Celtique S.A., priority 1999, dated 2004).

pKd, pKi: −log10 of the molar value.

Test [1] addresses T1, hSkM1 isoform of Na+ channels (Homo sapiens, UniProt P35499).
T1 construct: expressed in transfected cells
Put plainly: Electrophysiological Assay 1: whole-cell patch-clamp of Na+ currents in HEK-293 cells expressing hSkM1. It counts as cell-based. As to conditions: for pKi: HEK-293 cells stably expressing hSkM1, concentration that produces half maximal inhibition. The procedure:
Cell preparation: HEK-293 cells stably expressing the hSkM1 isoform of Na^+ channels (generous gift from Dr. A. L. George, Vanderbilt University Medical School) were cultured using standard techniques, as described previously (Verdoorn, T. A, et al., Neuron 4:919-928 (1990)). For electrophysiology, cells were plated onto 35 mm Petri dishes (pre-coated with poly-D-lysine) at a density of 1:40 on the day of re-seeding from confluent cultures. Our experience has been that cells are suitable for recordings for 2-3 days after plating.
Patch-clamp recordings of voltage-sensitive Na^+ currents: Whole-cell voltage-clamp recordings were made using conventional patch-clamp techniques (Hamill et al., Pfluegers Arch. 391:85-100 (1981)) with an Axopatch 200A amplifier (Axon Instruments, Foster City, Calif.). […] The recording chamber was continuously superfused with the external solution (150 mM NaCl, 5.4 mM KCl, 1.8 mM CaCl2, 1 mM MgCl2, 10 mM HEPES, 10 mM glucose, pH 7.4 (NaOH)) at a speed of about 1 mL/min. Recording pipettes were pulled from thick-walled capillaries (WPI, Sarasota, Fla.) and fire-polished. The pipette resistances ranged from 1 to 3 MΩ when the pipettes were filled with internal solution containing (in mM): 110 CsF, 10 NaCl, 5 MgCl2, 11 EGTA, 10 HEPES, pH adjusted to 7.4 with CsOH. Osmolality was set with a difference of 15-20 mmol/kg between external and internal solutions (lower inside the cell). Drugs and intervening wash-outs were applied through a linear array of flow pipes (Drummond Microcaps, 2 μL, 64-mm length). Compounds are dissolved in dimethylsulfoxide (DMSO) to make a 30 mM stock solution, which was subsequently diluted into the external solution to give final concentrations of 0.1-100 μM. At the highest (1%) concentration, DMSO inhibited the size of Na^+ current only slightly. Currents were recorded at room temperature (22-25° C.), filtered at 5 kHz with an active 8-pole Bessel filter (Frequency Devices, Haverhill, Mass.), digitized at 10-50 μs intervals, and stored using Digidata 1200 analog/digital interface with Pclamp6/Clampex software (Axon Instruments). Series resistance was cancelled typically by ˜75% when necessary. The inhibitory potency of drugs was assessed by measuring reductions in the peak amplitude of Na^+ currents induced by increasing concentrations of compounds tested. Na^+ currents were elicited by stepping membrane voltage from holding potentials over the range −100 mV to −50 mV, to a pulse potential of −10 mV. The test pulse duration was 5-10 msec, repeated at a frequency≦1 Hz. Concentration-inhibition curves were fitted with equation 1:
I/Icontrol=1/(1+([compound]/IC50)) Eq. 1
where Icontrol is the maximal Na^+ current in the absence of antagonist, [compound] is the drug concentration, and IC50 is the concentration of compound that produces half maximal inhibition.
The apparent antagonist dissociation constant (Kd) of this compound for inactivated sodium channels is ˜8 nM.
The Ki (the concentration of a compound that produces half maximal inhibition) value for 3-[4-(4-fluorophenoxy)phenyl]-1H-pyrazole-1-carboxamide and other tested compounds are presented in Table 2.

In test [2] the test system is maximal electroshock-induced seizures (MES). Put plainly: Maximum electroshock seizure test (MES), oral administration to mice. It counts as in vivo. As to conditions: 30 minutes before the test, dose protecting 50% of animals; for ED50: Mus musculus, po. An excerpt: The compounds of the present invention may be tested for in vivo anticonvulsant activity after i.v., p.o. or i.p. injection using a number of anticonvulsant tests in mice, including the maximum electroshock seizure test (MES). Maximum electroshock seizures were induced in male NSA mice weighing between 15-20 g and male Sprague-Dawley rats weighing between 200-225 g by application of current (50 mA, 60 pulses/sec, 0.8 msec pulse width, 1 sec duration, D.C., mice; 99 mA, 125 pulses/sec, 0.8 msec pulse width, 2 sec duration, D.C., rats) using a Ugo Basile ECT device (Model 7801). Mice were restrained by gripping the loose skin on their dorsal surface and saline-coated corneal electrodes were held lightly against the two corneae. Rats were allowed free movement on the bench top and ear-clip electrodes were used. […] A tonic seizure was defined as a hindlimb extension in excess of 90 degrees from the plane of the body. Results were treated in a quantal manner.
The ability of 3-[4-(2,4-difluorophenoxy)phenyl]-1H-pyrazole-1-carboxamide to block maximal electroshock-induced seizures (MES) was determined as described earlier.
3-[4-(2,4-Difluorophenoxy)phenyl]-1H-pyrazole-1-carboxamide was administered p.o. to mice 30 minutes before the test procedure.
The following compounds in Table 1 were tested in MES as described for 3-[4-(2,4-difluorophenoxy)phenyl]-1H-pyrazole-1-carboxamide: […]

Test [3] deals with rBIIA isoform of Na+ channels (Rattus norvegicus, UniProt P04775). Put plainly: Electrophysiological Assay 2: whole-cell patch-clamp of Na+ currents in HEK-293 cells expressing rBIIA. It counts as cell-based. The note with it: HEK-293 cells stably expressing rBIIA; concentration that produces half maximal inhibition. How it is done:
Cell preparation: HEK-293 (NaIIA-B2) cell line stably expressing the rBIIA isoform of Na^+ channels was established in-house. The cells were cultured using standard techniques, as described previously (Verdoorn, T. A, et al., Neuron 4:919-928 (1990)). For electrophysiology, cells were plated onto poly-D-lysine pre-coated Cellware 35 mm Petri dishes (BIOCOAT, Becton Dickinson) at a density of ˜10^4 cells/dish on the day of re-seeding from confluent cultures. Our experience has been that cells are suitable for recordings for 2-3 days after plating.
Patch-clamp recordings of voltage-sensitive Na^+ currents. Whole-cell voltage-clamp recordings were made using conventional patch-clamp techniques (Hamill et al., Pfluegers Arch. 391:85-100 (1981)) with an Axopatch 200A amplifier (Axon Instruments, Foster City, Calif.). The recording chamber was continuously superfused with the external solution (150 mM NaCl, 5.4 mM KCl, 1.8 mM CaCl2, 1 mM MgCl2, 10 mM HEPES, 10 mM glucose, pH7.4 adjusted with NaOH, osmolality ˜320 mmol/kg) at a speed of about 1 mL/min. Recording pipettes were pulled from the thick-walled capillaries (WPI, Sarasota, Fla.) and fire-polished. The pipette resistances ranged from 1 to 3 MΩ when the pipettes were filled with internal solution containing (in mM): 130 CsF, 20 NaCl, 2 MgCl2, 10 EGTA, 10 HEPES, pH adjusted to 7.4 with CsOH, osmolality ˜310 mmol/kg. Drugs and intervening wash-outs were applied through a linear array of flow pipes (Drummond Microcaps, 2 μL, 64-mm length). Compounds are dissolved in dimethylsulfoxide (DMSO) to make a 30 mM stock solution, which was subsequently diluted into the external solution to give final concentrations of 0.1-100 μM. At the highest (1%) concentration, DMSO inhibited the size of Na^+ current only slightly. Currents were recorded at room temperature (22-25° C.), filtered at 3 kHz with an active 8-pole Bessel filter (Frequency Devices, Haverhill, Mass.), digitized at 10-50 μs intervals, and stored using Digidata 1200 analog/digital interface with Pclamp6/Clampex software (Axon Instruments). Series resistance was cancelled typically by ˜75% when necessary.
The following voltage pulse protocols were used to assess the potency and kinetics of inhibition of the Na^+ channels by the compounds (FIG. 1). [drawing 33]
FIG. 1. Voltage pulse protocols. A. IV-curves. C. Steady-state inactivation. B. Repriming kinetics. D. Time course of binding.
Current-voltage relationship (IV-curve), protocol A, was used to report the voltage at which the maximal inward Na^+ current is achieved. This voltage was used throughout the experiment as testing voltage, Vt. The steady-state inactivation (or, availability) curve, protocol C, was used to get the voltage at which almost complete (≧95%) inactivation of Na^+ channels occurs; it served as voltage for conditioning prepulse, Vc, throughout the experiment. Protocol B reports how fast the channels recover from inactivation at hyperpolarized voltages. This permitted us to set up the duration of the hyperpolarization gap which is used in measurement of the kinetics of binding of compounds to inactivated Na^+ channels (protocol D). Channel repriming under control conditions was fast (≧90% recovery during first 5-10 ms). If a drug substantially retards the repriming process then it becomes possible (protocol D) to accurately measure the kinetics of binding of the inhibitor to inactivated channels as well as the steady-state affinity (k+ and Ki). To estimate k+ values the reduction in peak currents in successive trials with varying pre-pulse duration was plotted as a function of pre-pulse duration and the time constant (τ) measured by mono-exponential fit. A plot of 1/τ as a function of antagonist concentration then allowed calculating of the macroscopic binding rates of the antagonists. To determine Ki values the partial inhibition curves measured by fractional responses in steady-state were fitted with the logistic equation: […]
Background: The patch-clamp technique gives a direct electrical read-out from membranes.

T1 sequence (P35499 whole entry, canonical isoform): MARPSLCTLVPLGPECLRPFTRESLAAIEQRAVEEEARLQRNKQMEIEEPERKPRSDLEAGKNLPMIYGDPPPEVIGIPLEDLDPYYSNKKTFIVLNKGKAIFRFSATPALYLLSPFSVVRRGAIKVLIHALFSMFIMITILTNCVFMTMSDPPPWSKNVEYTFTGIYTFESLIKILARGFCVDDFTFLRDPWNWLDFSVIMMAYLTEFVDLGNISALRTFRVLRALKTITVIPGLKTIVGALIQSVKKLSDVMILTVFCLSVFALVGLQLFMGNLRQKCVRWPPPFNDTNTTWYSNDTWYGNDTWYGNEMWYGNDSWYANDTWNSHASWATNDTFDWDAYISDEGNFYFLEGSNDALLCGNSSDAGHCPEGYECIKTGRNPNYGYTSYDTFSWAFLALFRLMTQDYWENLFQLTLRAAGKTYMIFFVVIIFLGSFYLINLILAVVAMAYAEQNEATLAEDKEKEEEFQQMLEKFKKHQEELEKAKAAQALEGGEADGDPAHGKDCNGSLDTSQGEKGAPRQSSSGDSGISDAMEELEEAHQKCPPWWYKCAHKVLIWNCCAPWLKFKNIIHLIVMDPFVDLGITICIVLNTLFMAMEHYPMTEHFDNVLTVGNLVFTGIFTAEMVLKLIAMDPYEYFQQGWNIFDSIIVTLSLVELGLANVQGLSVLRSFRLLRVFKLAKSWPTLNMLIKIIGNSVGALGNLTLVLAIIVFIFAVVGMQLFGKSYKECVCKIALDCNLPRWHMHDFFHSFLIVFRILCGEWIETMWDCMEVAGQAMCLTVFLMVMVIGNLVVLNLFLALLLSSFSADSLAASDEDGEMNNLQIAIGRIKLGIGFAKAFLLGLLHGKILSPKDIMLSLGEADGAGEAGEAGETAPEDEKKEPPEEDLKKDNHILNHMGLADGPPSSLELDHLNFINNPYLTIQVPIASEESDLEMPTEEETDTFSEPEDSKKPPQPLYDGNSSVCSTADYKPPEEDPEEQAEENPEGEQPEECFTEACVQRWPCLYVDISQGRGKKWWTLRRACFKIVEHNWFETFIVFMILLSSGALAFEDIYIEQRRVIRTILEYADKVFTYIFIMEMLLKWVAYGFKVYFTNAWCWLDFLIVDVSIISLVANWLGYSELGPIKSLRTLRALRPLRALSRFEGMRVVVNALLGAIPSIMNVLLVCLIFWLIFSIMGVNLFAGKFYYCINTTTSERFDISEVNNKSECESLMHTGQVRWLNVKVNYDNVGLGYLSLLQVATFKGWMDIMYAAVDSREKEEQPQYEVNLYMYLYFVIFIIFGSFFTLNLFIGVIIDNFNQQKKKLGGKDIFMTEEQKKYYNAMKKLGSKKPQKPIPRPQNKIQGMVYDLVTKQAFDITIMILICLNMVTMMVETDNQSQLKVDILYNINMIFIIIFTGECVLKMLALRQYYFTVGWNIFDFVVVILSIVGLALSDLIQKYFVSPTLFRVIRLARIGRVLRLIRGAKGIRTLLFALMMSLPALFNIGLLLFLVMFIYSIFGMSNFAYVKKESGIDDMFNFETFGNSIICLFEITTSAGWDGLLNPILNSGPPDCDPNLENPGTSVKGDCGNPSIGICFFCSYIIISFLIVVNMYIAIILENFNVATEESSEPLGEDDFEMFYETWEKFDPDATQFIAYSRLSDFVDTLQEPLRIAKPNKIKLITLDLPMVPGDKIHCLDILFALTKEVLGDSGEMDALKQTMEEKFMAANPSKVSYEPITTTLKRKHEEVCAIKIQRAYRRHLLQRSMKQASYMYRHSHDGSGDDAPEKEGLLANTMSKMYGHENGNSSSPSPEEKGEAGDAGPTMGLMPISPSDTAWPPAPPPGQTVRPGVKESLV

With “1-[3-[4-(4-Nitrophenoxy)phenyl]-1H-pyrazolyl]ethanone”, the pKi (as a rule, the negative decadic logarithm of the Ki, by convention in mol/L) in test [1] was 8.05. Consider `CS(=O)(=O)NCCn1nccc1-c1ccc(Oc2ccc(F)cc2)cc1` [1-[2-(Methanesulfonylamino)ethyl]-5-[4-(4-fluorophenoxy)phenyl]-1H-pyrazole], for which, in test [2], the ED50 – broadly, the dose at which the effect has come halfway, by size or by number of responders – amounted to 7.5 mg/kg. In the case of `CC(=O)N(C)n1nccc1-c1ccc(Oc2ccc(F)cc2)cc1` [2-(N-methylacetamido)-3-[4-(4-fluorophenoxy)phenyl]-2H-pyrazole], the ED50 in test [2] worked out at 2.9 mg/kg. In test [3], `Fc1ccc(Oc2ccc(-c3ncc[nH]3)cc2)cc1` [2-[4-(4-Fluorophenoxy)phenyl]-1H-imidazole] showed a pKi of 5.96.

As to `NC(=O)c1coc(-c2ccc(Oc3ccc(F)cc3)cc2)n1` [2-[4-(4-Fluorophenoxy)phenyl]oxazole-4-carboxamide], the pKi in test [3] is 5.88. Regarding `CN1CCN(C(=O)Cn2nccc2-c2ccc(Oc3ccc(F)cc3)cc2)CC1` [2-{5-[4-(4-Fluorophenoxy)phenyl]-pyrazol-1-yl}-1-(4-methyl)piperazine-1-yl-ethanone], the “MES p.o. ED50” value in test [2] came out at 10 mg/kg. As for `NC(=O)n1ccc(-c2ccc(Oc3ccccc3)cc2)n1` [3-(4-phenoxyphenyl)-1H-pyrazole-1-carboxamide], in test [1], the pKi was 7.82. `NC(=O)n1ccc(-c2ccc(Oc3ccc(F)cc3)c(F)c2)n1` [3-[3-fluoro-4-(4-fluorophenoxy)phenyl]-1H-pyrazole-1-carboxamide]: the ED50 in test [2] was 4.5 mg/kg. Take `NC(=O)n1ccc(-c2ccc(Oc3ccc(F)cc3F)cc2)n1` [3-[4-(2,4-Difluorophenoxy)phenyl]-1H-pyrazole-1-carboxamide]: the ED50 in test [2] stood at 3.5 mg/kg. Besides, the pKi in test [1] is 8.00. Turning to `NC(=O)n1ccc(-c2ccc(Oc3ccc(F)cc3)cc2)n1` [3-[4-(4-Fluorophenoxy)phenyl]-1H-pyrazole-1-carboxamide], in test [2], it took a dose of 7 mg/kg to reach the 50% effect level (ED50). The same compound had a pKi in test [1] of 8.10. In addition, in test [1] (HEK-293 cells stably expressing hSkM1 sodium channels), the “inhibition of voltage-gated sodium currents” value was “dose-dependent inhibition”. Also, the pKd (as a rule, the Kd on a negative log10 scale, so that one unit is a factor of ten) in test [1] (HEK-293 cells stably expressing hSkM1 sodium channels, read-out: apparent antagonist dissociation constant (Kd) for inactivated sodium channels) was ~8.10. For the same compound, in test [1] (hSkM1, blocking effect highly sensitive to the holding voltage), the “potency towards Na+ channels in their resting states” value is given as “weak potency”.

In turn, `CN(C)C(=O)n1ccc(-c2ccc(Oc3ccc(F)cc3)cc2)n1` [3-[4-(4-Fluorophenoxy)phenyl]-1H-pyrazole-1-carboxylic Acid Dimethylamide] gave an ED50 in test [2] of 8.6 mg/kg.

Compound `Fc1ccc(Oc2ccc(-c3cc[nH]n3)cc2)cc1` [3-[4-(4-Fluorophenoxy)phenyl]-1H-pyrazole] came in with an ED50 in test [2] of 8 mg/kg. In test [2], `NC(=O)n1ccc(-c2ccc(Oc3ccc([N+](=O)[O-])cc3)cc2)n1` [3-[4-(4-Nitrophenoxy)phenyl]-1H-pyrazole-1-carboxamide] came in with an ED50 of 2 mg/kg. Also, in test [1], the pKi was 7.96. Turning to `Cc1nc(-c2ccc(Oc3ccc(F)cc3F)cc2)c[nH]1` [4-[4-(2,4-Difluorophenoxy)phenyl]-2-methyl]-1H-imidazole], the “MES p.o. ED50” value in test [2] is on record as 7.5 mg/kg. Take `Fc1ccc(Oc2ccc(-c3c[nH]cn3)cc2F)cc1` [4-[4-(4-Fluorophenoxy)-3-fluorophenyl]-1H-imidazole]: the ED50 in test [2] worked out at 3.2 mg/kg. In the case of `NC(=O)c1nc(-c2ccc(Oc3ccc(F)cc3)c(F)c2)cs1` [4-[4-(4-Fluorophenoxy)-3-fluorophenyl]-thiazole-2-carboxamide], in test [1], the pKi is 7.70.

In test [2], `Fc1ccc(Oc2ccc(-c3c[nH]cn3)cc2)cc1` [4-[4-(4-Fluorophenoxy)phenyl]-1H-imidazole] registered an ED50 of 4.2 mg/kg. Still for that read-out and setting: under `NC(=O)c1ccc(-c2ccc(Oc3ccc(F)cc3)cc2)[nH]1` [5-[4-(4-Fluorophenoxy)phenyl]-pyrrole-2-carboxamide] stands 10 mg/kg. The compound `O=[N+]([O-])c1ccc(Oc2ccc(-c3cc[nH]n3)cc2)cc1` [5-[4-(4-nitrophenoxy)phenyl]-1H-pyrazole, 3-[4-(4-nitrophenoxy)phenyl]-1H-pyrazole] showed a pKi in test [1] of 6.96.

As to `COC(=O)c1ccc(-c2ccc(Oc3ccc(F)cc3)cc2)[nH]1` [Methyl 5-[4-(4-Fluorophenoxy)phenyl]pyrrole-2-carboxylate], the ED50 in test [2] stood at 6 mg/kg.
